Assay results from US11104684B2, “Dimers of covalent NFKB inhibitors” (BOARD OF REGENTS OF THE UNIVERSITY OF NEBRASKA, priority 2016, dated 2021).

Key:
ovarian cancer cells = assay: 3-day growth assay; assay type: cell-based
Excerpt: In the same assay, reduced compound 36-297.

OVCAR5 cells = assay: Cell viability assay (PrestoBlue, 72 hour drug incubation); assay type: cell-based; settings: growth inhibition; for IC50: Homo sapiens, OVCAR-5, 72 hour incubation
Procedure: (§1) MiaPaCa2, A2780, and OVCAR5 cells were plated at 4000 cells/well in a 96-well plate and allowed to adhere overnight. The following day, cells were treated with compounds using ˜10-fold dilutions starting at 1000 nM. PrestoBlue reagent (Invitrogen #A13262) was added to cells after 72 hour drug incubation to assess the growth inhibition. Fluorescence excitation/emission was measured at 560/590nM using a SpectraMax M5^e instrument. Growth inhibition was calculated using 100-[100*(Samples-T0)/(T100-T0)]. T0 is the vehicle control reading immediately following drug addition and T100 is the control reading at the end of 72 hour incubation.

A2780 cells = assay: as above; assay type: cell-based; settings: 72 hour incubation, growth inhibition; for IC50: Homo sapiens
Procedure: as §1

MiaPaCa2 cells = assay: as above; assay type: cell-based; settings: Homo sapiens, MIA PaCa-2, 72 hour incubation, growth inhibition
Procedure: as §1

[1] = test system: non-transformed HGSC precursor fallopian tube epithelial (FTE) cells FT282; assay: Growth inhibition in non-transformed fallopian tube epithelial cells; assay type: cell-based; settings: for IC50: Epithelial cell, non-transformed FT282 cells
Procedure: Monomeric compound 19, 36-252, and 36-242 were evaluated in non-transformed HGSC precursor fallopian tube epithelial (FTE) cells FT282.

[2] = test system: proteins in the IKK complex (A2780 cells); assay: Western blot analysis of crosslinking; assay type: cell-based; settings: for crosslinking (high molecular weight bands): A2780 cells, 10 pM, 2 hours
Procedure: Crosslinking of proteins in the IKK complex was studied as follows. A2780 cells were treated with 10 pM of analog 19 or 36-252 and incubated for 2 hours.
Cells were washed with cold 1×PBS 3 times and scraped before being lysed by a buffer containing the following: 50 mM Tris, 100 mM NaCl, 1% NP-40, […], 20% SDS, 20×PPl (Na3VO4, NAF, β-glycerophosphate) and 1 mmol/L PMSF. After collection, samples were incubated on ice for 30 minutes and vortexed in 15 minute intervals. Samples were then centrifuged at 14,000rpm for 10 minutes at 4° C. and supernatant was collected. Protein quantification was determined by BCA Protein Assay (Pierce #23225). 20-40ug protein samples were run on 4-15% gradient gels (BioRad) in 1×TRIS-Glycine-SDS Buffer (Research Products International Corporation #T32080) at 120V for -60 minutes and separated by SDS-page electrophoresis. Samples were transferred to a PVDF membrane by semi-dry transfer method (ThermoScientific #35035) run at 18V for ˜35 minutes. Membranes were blocked in 5% milk diluted in 1×-Tris Buffered Saline with 0.1% Tween (1×TBST) for 1 hour at room temperature rocking at low speed. Primary antibodies were diluted in 5% milk in 1×TBST and were rocked gently overnight in 4° C. Membranes were incubated with the appropriate HRP-conjugated secondary antibody for 1 hour at room temperature while gently rocking. 3 washes (10 minute) with 1×TBST occurred before and after secondary antibody. ECL Prime (GE Healthcare #RPB2236) was used to detect protein expression

[3] = test system: TNF-α-induced NFκB activity in A549 luciferase cells; assay: kB-luciferase assay; assay type: cell-based; settings: 20, 4, and 0.8 pM for 2 hours, then TNF-a
Procedure: A549 luciferase cells were seeded in white 96-well plates at a density of 50,000 cells per well and incubated overnight. Cells were stimulated with 20 ng/mL TNFα (Panomics) for 3 hours. AlamarBlue (abSerotec) was added (which served as a control for seeding and viability) and the cells were incubated for 3 additional hours. ONE-Glo Luciferase reagent (Promega) was added to each well and cells were incubated at room temperature for an additional 10 minutes before luminescence was measured at 1000 ms integration on a SpectraMax M5e plate reader.
The effect 36-252 and 36-297 on NFκB driven gene expression was evaluated using a cancer cell line specifically designed to monitor the activity of NFκB in response to TNF-α. Cells were seeded onto 96-well plates and allowed to attach overnight. The cells were treated with 36-252 and 36-297 (20, 4, and 0.8 pM) for 2 hours, followed by TNF-a for an additional 6 hours. Under multiplexing conditions the cells were assayed for viability using Alamar Blue (Ab Serotec) and the NFκB transcription activity using the ONE-Glo luciferase system (Promega).

[4] = Dose limiting toxicities / MTD study; assay type: in vivo
Procedure: Six to eight-week-old C57 Albino mice (18-22 grams) were used in this study and were randomly assigned. For MTD studies, 3 mice were randomly assigned to six groups. Animals (Group 1-6) received a single dose of (0, 1, 5, 10, 20 and 100 mg/Kg in […] neat DMSO) of 36-252 via intraperitoneal injection. Mice were sacrificed after 48 hours, and blood and serum samples were subjected to hematology and clinical chemistry analyses. For group 7, a 6-day, 5 mg/kg/day study was carried out followed by submission of samples for hematology and clinical chemistry analyses.
In the phase I study, the lethal dose or maximum tolerated dose of 36-252 was evaluated. […] In the phase II study, three mice at 5 mg/kg/day were administered intraperitoneally for six days.

A2780 SP cells = assay: Side population analysis (Hoechst 33342, flow cytometry); settings: 60 μM, 15 min at 37° C.
Procedure: (§2) Hoechst 33342 dye (5 μg) was added to each tube and incubated for 45 min at 37° C. Tubes were vortexed slightly after every 5 min. Cells were resuspended in a single cell suspension after centrifugation and kept on ice before acquisition. The side-population was measured by flow cytometry.

[5] = test system: high grade serous carcinoma (HGSC) ovarian cancer cell lines; assay: Growth inhibition in a panel of HGSC ovarian cancer cell lines; assay type: cell-based
Procedure: The IC50 value of all three inhibitors was greater than 20 μM in this cell line.

OVCAR5 SP cells = assay: Side population analysis (Hoechst 33342, flow cytometry); settings: 60 μM, 15 min at 37° C.
Procedure: as §2

[6] = test system: caspase 3/7 activity in HGSC cell lines; assay: Caspase 3/7 luciferase assay (apoptosis); assay type: cell-based; settings: 1 μM, 6 hours, five HGSC cell lines
Procedure: To determine the effect of 36-252 on apoptosis, a small panel of HGSC cell lines was treated with 1 μM 36-252 for 6 hours (1 μM of flavopiridol was used as a positive control). Caspases are a class of cysteine proteinases that are activated during apoptosis and measuring caspase activity is routinely used to detect activation of apoptotic signaling. Activation of caspase 3/7 was assessed using a luciferase assay.
2500 cells were plated in a 384-well black walled clear bottom plate at 2,500 cells per well in […] per well in the presence of 4.5 μM doxycycline. Cells were incubated overnight to adhere to plate. After cells were treated and plate was allowed to incubate, Caspase-glo (Promega G8093) reagent was added and the plate was allowed to incubate for 30 min. The plate was then read for luminescence at 1000 ms. Presto-blue was added at a volume of 1/10 total volume per well (2.5μL) and cells were allowed to incubate for 10 min. The plate was then read for fluorescence at 560ex/590em. Values were calculated by: ([Luminescence*100]/Fluorescence)/DMSOavg.

[7] = mouse, in vivo, ip, 5 mg/kg/day
[8] = panel of HGSC ovarian cancer cell lines

Row | IC50 (OVCAR5 cells) | IC50 (A2780 cells) | IC50 (MiaPaCa2 cells) | Compound | further results
1 | 0.2 ± 0.04 µM | 0.4 ± 0.06 µM |  | C=C1CC2(NC1=O)C(=O)N(CCCCN1C(=O)C3(CC(=C)C(=O)N3)c3ccccc31)c1ccccc12 (centres unmarked) [Compound 40-038] | 
2 | 0.83 ± 0.12 µM | 0.77 ± 0.14 µM |  | C=C1CC2(OC1=O)C(=O)N(CCCCCCCCCCCN1C(=O)C3(CC(=C)C(=O)O3)c3ccccc31)c1ccccc12 (centres unmarked) [Compound 36-258] | 
3 | 0.37 ± 0.04 µM | 0.35 ± 0.05 µM |  | C=C1CC2(OC1=O)C(=O)N(CCCCCCCN1C(=O)C3(CC(=C)C(=O)O3)c3c(C)ccc(C)c31)c1c(C)ccc(C)c12 (centres unmarked) [Compound 36-280] | 
4 | 0.09 ± 0.01 µM | 0.23 ± 0.02 µM |  | C=C1CC2(OC1=O)C(=O)N(CCCN1C(=O)C3(CC(=C)C(=O)O3)c3ccccc31)c1ccccc12 (centres unmarked) [Compound 36-286] | 
5 | 0.18 ± 0.01 µM | 0.31 ± 0.02 µM |  | C=C1CC2(OC1=O)C(=O)N(Cc1ccc(CN3C(=O)C4(CC(=C)C(=O)O4)c4ccccc43)cc1)c1ccccc12 (centres unmarked) [Compound 40-014] | 
6 | 0.32 ± 0.02 µM | 0.42 ± 0.04 µM |  | C=C1CC2(OC1=O)C(=O)N(CCN1C(=O)C3(CC(=C)C(=O)O3)c3ccccc31)c1ccccc12 (centres unmarked) [Compound 40-059] | 
7 | 0.41 ± 0.06 µM | 0.49 ± 0.06 µM | 1.47 µM | C=C1CC2(OC1=O)C(=O)N(CCCCCCCCCCN1C(=O)C3(CC(=C)C(=O)O3)c3ccccc31)c1ccccc12 (centres unmarked) [Compound 36-256] | 

Second part, the compound before the results:

Row | Compound | IC50 (OVCAR5 cells) | IC50 (A2780 cells) | IC50 (MiaPaCa2 cells) | further results
8 | C=C1CC2(OC1=O)C(=O)N(CCCCCCCCCCCCN1C(=O)C3(CC(=C)C(=O)O3)c3ccccc31)c1ccccc12 (centres unmarked) [Compound 36-242] | 0.47 ± 1.29 µM | 0.5 ± 0.06 µM | 1.94 µM | potency relative to monomeric compound 19 (ovarian cancer cells): 10 fold; IC50 [1]: > 20000 nM
9 | C=C1CC2(OC1=O)C(=O)N(CCCCCCN1C(=O)C3(CC(=C)C(=O)O3)c3ccccc31)c1ccccc12 (centres unmarked) [Compound 36-239] | 0.3 ± 0.02 µM | 0.7 ± 0.09 µM | 1.05 µM | 
10 | C=C1CC2(OC1=O)C(=O)N(CCCCCCCN1C(=O)C3(CC(=C)C(=O)O3)c3ccccc31)c1ccccc12 (centres unmarked) [Compound 36-252] | 0.32 µM | 0.32 µM | 0.76 µM | IC50 [1]: > 20000 nM; apparent therapeutic index ([1]; FT282 IC50 vs average HGSC IC50): greater than 25; crosslinking (high molecular weight bands) [2]: High molecular weight bands in the NFκB and IKBα blots were observed; bands in time course study ([2]; time course study): a band between 150 and 250 kDa in addition to the IKBα-NFκB bands; protein degradation / PARP cleavage ([2]; time course study): degradation of IKK α/β and PARP cleavage; inhibition of NFκB transcription activity [3]: Dose-dependent inhibition was observed; Treated/Alive ([4]; 1 mg/Kg, 1 dose, intraperitoneal, mice): (3/3); hematological analysis (WBC, RBC, hemoglobin) ([4]; mouse, in vivo): no significant differences in relative WBC, RBC, or hemoglobin numbers; overt toxicity ([4]; mouse, in vivo, 100 mg/kg): no sign of overt toxicity was observed; mean body weight [4, 7]: nor was any statistical difference in mean body weight observed; mortality and clinical levels [4, 7]: No mortality or abnormal clinical levels were observed; SP cells eliminated, A2780 (A2780 SP cells): > 98%; IC50 ([5]; average over HGSC cell lines): 780 nM; potency compared with 19 and 36-242 [5, 8]: more potent than analog 19 and a dimer with a 12-carbon linker 36-242; potency in HGSC panel [5, 8]: sub μM; SP cells eliminated, OVCAR5 (OVCAR5 SP cells): > 85%; caspase 3/7 activity [6]: Increased caspase 3/7 activity was seen in three of the five HGSC cell lines
11 | C=C1CC2(OC1=O)C(=O)N(CCCCCCCCCN1C(=O)C3(CC(=C)C(=O)O3)c3ccccc31)c1ccccc12 (centres unmarked) [Compound 36-204] | 0.48 ± 0.06 µM | 1.08 ± 0.01 µM | 2.16 µM | 
12 | C=C1CC2(NC1=O)C(=O)Nc1ccccc12 (centres unmarked) [Compound 25-4] | 3.13 ± 0.55 µM | 0.99 ± 0.11 µM | 6.08 µM | 
13 | CC1CC2(OC1=O)C(=O)N(CCCCCCCN1C(=O)C3(CC(C)C(=O)O3)c3ccccc31)c1ccccc12 (centres unmarked) [Compound 36-297] |  |  |  | IC50 (μM) OVCAR5 (OVCAR5 cells; 72 hour incubation): Inactive; IC50 (μM) A2780 (A2780 cells): Inactive
14 | C=C1CC2(OC1=O)C(=O)N(CCCCCCCCN1C(=O)C3(CC(=C)C(=O)O3)c3ccccc31)c1ccccc12 (centres unmarked) [Compound 36-254] | 0.32 µM | 0.6 ± 0.07 µM | 1.7 µM | 
15 | C=C1CC2(OC1=O)C(=O)N(CCCCCN1C(=O)C3(CC(=C)C(=O)O3)c3ccccc31)c1ccccc12 (centres unmarked) [Compound 36-202] | 0.09 ± 0.01 µM | 0.29 ± 0.04 µM | 0.91 µM | 
16 | C=C1CC2(OC1=O)C(=O)Nc1ccccc12 (centres unmarked) [Compound 19] |  |  |  | IC50 [1]: > 20000 nM; crosslinking (high molecular weight bands) [2]: High molecular weight bands in the NFκB and IKBα blots were observed
